Measurements: patent US9340590B2 (priority 2011, dated 2016)
Where two headings read alike, the source gives them in different places.

Legend:
Test in all cases: cell-based
[1] = molecular target: hNav1.5 (Homo sapiens, UniProt Q14524)
[2] = molecular target: hNav1.3 (Homo sapiens, UniProt Q9NY46); conditions: IonWorks Quattro, use-dependent protocol, hNav1.3; read-out: IWQ Use Nav1.3
[3] = molecular target: hNav1.7 (Homo sapiens, UniProt Q15858); assay type: cell-based; conditions: IonWorks Quattro, use-dependent protocol, hNav1.7; read-out: IWQ Use Nav1.7
[4] = IonWorks Quattro, use-dependent protocol, hNav1.5, read-out: IWQ Use Nav1.5

hNav1.5, sequence (Q14524 whole entry, looked up): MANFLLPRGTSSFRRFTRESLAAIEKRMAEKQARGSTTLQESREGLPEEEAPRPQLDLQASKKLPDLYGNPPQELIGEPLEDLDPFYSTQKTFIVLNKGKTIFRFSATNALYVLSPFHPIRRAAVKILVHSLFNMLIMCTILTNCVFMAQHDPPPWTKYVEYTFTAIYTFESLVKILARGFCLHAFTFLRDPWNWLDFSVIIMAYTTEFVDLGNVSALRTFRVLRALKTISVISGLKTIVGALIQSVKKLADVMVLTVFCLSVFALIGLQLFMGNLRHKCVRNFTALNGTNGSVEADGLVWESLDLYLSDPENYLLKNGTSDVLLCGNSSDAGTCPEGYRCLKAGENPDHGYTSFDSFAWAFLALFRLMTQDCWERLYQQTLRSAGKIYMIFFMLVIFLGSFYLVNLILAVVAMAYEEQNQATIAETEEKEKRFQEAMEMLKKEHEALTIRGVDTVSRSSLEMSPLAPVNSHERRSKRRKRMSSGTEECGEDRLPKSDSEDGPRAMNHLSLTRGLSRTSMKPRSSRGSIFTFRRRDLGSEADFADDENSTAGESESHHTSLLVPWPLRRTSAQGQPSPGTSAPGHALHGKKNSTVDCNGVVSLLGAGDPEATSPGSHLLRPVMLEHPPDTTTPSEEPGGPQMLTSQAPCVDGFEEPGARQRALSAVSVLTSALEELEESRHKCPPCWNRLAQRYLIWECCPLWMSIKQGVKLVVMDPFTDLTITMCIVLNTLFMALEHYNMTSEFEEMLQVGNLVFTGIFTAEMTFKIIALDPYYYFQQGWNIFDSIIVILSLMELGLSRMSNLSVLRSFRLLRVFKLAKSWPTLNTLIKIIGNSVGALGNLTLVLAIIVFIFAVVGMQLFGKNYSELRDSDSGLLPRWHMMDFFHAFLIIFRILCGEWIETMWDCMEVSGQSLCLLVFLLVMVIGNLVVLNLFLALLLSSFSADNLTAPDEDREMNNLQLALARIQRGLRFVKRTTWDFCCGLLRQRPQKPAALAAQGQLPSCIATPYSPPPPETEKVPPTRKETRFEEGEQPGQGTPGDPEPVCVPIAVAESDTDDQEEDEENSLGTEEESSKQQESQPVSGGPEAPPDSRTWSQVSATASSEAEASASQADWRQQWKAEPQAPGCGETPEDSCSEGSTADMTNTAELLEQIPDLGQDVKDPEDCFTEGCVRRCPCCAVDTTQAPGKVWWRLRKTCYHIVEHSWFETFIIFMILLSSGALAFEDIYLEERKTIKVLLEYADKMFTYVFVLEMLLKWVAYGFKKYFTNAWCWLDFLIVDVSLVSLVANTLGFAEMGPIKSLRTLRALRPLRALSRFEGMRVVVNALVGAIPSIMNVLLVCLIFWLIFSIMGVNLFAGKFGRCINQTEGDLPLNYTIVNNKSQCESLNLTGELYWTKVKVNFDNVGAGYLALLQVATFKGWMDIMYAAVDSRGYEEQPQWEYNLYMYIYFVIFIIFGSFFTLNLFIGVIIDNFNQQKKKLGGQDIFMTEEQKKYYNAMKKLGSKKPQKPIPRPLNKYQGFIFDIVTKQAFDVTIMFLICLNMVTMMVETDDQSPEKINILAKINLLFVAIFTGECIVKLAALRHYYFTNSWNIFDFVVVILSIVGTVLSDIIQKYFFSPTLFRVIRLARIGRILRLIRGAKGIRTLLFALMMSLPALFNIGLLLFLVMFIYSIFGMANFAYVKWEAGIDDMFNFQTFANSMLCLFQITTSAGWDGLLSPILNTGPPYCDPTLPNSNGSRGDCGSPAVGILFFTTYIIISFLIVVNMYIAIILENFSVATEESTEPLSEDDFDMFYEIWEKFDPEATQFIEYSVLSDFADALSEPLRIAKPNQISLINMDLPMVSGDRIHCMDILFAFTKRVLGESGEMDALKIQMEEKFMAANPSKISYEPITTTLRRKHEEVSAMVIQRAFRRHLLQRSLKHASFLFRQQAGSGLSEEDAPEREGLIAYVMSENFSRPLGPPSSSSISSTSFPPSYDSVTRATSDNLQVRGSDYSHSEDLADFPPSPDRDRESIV
hNav1.3, sequence (Q9NY46 whole entry, looked up): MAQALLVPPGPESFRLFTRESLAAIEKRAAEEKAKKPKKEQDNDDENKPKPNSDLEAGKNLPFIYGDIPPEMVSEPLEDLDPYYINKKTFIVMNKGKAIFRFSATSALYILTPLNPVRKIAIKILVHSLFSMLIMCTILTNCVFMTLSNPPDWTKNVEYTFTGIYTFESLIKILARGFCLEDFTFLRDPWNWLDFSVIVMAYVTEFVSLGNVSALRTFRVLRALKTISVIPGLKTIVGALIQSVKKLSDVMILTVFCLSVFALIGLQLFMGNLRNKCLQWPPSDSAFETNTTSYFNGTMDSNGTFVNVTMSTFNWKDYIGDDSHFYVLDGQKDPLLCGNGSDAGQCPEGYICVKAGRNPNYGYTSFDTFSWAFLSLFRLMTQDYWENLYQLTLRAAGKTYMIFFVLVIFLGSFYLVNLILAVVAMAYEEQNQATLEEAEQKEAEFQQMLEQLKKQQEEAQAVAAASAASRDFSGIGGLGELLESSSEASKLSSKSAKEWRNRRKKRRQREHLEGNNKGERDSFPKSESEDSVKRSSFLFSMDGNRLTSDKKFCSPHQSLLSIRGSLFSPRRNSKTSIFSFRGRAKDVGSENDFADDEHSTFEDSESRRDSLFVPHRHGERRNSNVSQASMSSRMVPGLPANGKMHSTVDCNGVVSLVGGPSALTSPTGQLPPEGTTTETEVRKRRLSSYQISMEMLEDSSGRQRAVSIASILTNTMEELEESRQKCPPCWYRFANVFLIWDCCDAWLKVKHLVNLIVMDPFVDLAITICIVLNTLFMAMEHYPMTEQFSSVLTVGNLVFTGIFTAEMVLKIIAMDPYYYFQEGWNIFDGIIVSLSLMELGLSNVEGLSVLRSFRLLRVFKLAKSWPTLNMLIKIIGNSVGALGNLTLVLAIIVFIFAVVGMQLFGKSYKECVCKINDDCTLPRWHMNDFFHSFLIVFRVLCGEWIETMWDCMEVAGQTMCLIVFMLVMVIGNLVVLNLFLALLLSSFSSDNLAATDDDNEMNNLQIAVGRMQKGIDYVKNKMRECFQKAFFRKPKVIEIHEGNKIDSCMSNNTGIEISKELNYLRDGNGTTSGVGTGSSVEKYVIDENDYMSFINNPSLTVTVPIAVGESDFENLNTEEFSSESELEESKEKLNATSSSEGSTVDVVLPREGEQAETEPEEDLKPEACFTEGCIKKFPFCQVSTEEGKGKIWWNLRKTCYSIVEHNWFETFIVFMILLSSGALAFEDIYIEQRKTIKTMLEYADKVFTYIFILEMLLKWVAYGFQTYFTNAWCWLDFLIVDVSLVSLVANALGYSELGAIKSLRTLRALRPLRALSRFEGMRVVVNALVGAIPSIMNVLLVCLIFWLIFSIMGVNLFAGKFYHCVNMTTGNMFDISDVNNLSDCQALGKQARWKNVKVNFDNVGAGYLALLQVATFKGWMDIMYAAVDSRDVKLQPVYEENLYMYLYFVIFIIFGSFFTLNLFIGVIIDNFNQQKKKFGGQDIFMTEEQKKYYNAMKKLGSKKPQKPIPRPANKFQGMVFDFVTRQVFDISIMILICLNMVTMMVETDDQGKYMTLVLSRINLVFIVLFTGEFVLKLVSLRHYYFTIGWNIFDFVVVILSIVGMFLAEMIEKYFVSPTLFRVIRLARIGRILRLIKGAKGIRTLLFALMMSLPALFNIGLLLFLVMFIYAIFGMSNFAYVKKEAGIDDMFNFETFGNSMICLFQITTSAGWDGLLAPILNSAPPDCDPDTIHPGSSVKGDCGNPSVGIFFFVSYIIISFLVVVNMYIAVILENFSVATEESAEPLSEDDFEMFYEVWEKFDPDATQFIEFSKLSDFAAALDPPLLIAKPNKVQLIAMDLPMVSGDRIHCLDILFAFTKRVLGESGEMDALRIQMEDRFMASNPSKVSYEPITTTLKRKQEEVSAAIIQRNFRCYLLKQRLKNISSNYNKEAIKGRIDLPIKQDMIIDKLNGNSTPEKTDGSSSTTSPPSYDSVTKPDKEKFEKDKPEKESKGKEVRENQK

Row | SMILES | IC50 [1, 4] [nM] | IC50 [2] [nM] | IC50 [3] [nM] | IC50 ([1]; IWQ Use Nav1.5) [nM]
1 | CC[C@H](C)[C@@H]1NC(=O)[C@@H]2CSSC[C@@H]3NC(=O)[C@H](C(C)C)NC(=O)[C@H](CC(C)C)NC(=O)[C@H](CC(N)=O)NC(=O)[C@@H]4CCCN4C(=O)[C@H](CCCNC(=N)N)NC(=O)[C@H](CSSC[C@H](NC(=O)[C@@H](N)CC(=O)O)C(=O)N[C@@H](CC(C)C)C(=O)NCC(=O)N[C@@H](Cc4ccc(C)cc4)C(=O)N[C@@H](CC(C)C)C(=O)N[C@@H](CCCNC(=N)N)C(=O)N[C@@H](CCCCN)C(=O)N2)NC(=O)[C@H](CSSC[C@@H](C(=O)N[C@@H](CCCCN)C(=O)N[C@@H](Cc2ccc(O)cc2)C(=O)N[C@H](C(=O)N[C@@H](Cc2ccccc2)C(N)=O)C(C)C)NC(=O)[C@H](Cc2c[nH]c4ccccc24)NC(=O)[C@H](CCCCN)NC(=O)[C@H](Cc2c[nH]cn2)NC(=O)[C@H]([C@@H](C)O)NC(=O)[C@H](CCCNC(=N)N)NC(=O)[C@H](CO)NC3=O)NC(=O)[C@H](CCCCN)NC(=O)[C@H](CC(=O)O)NC(=O)[C@H](CC(N)=O)NC(=O)[C@H](CC(=O)O)NC(=O)[C@@H]2CCCN2C1=O [compound 670] | > 5000 | 55 | 190 | –
2 | CC[C@H](C)[C@@H]1NC(=O)[C@@H]2CSSC[C@@H]3NC(=O)[C@H](C(C)C)NC(=O)[C@H](CC(C)C)NC(=O)[C@H](CC(N)=O)NC(=O)[C@@H]4CCCN4C(=O)[C@H](CCCNC(=N)N)NC(=O)[C@H](CSSC[C@H](NC(=O)[C@@H](N)CC(=O)O)C(=O)N[C@@H](CC(C)C)C(=O)NCC(=O)N[C@@H](Cc4ccc(C(C)(C)C)cc4)C(=O)N[C@@H](CC(C)C)C(=O)N[C@@H](CCCNC(=N)N)C(=O)N[C@@H](CCCCN)C(=O)N2)NC(=O)[C@H](CSSC[C@@H](C(=O)N[C@@H](CCCCN)C(=O)N[C@@H](Cc2ccc(O)cc2)C(=O)N[C@H](C(=O)N[C@@H](Cc2ccccc2)C(N)=O)C(C)C)NC(=O)[C@H](Cc2c[nH]c4ccccc24)NC(=O)[C@H](CCCCN)NC(=O)[C@H](Cc2c[nH]cn2)NC(=O)[C@H]([C@@H](C)O)NC(=O)[C@H](CCCNC(=N)N)NC(=O)[C@H](CO)NC3=O)NC(=O)[C@H](CCCCN)NC(=O)[C@H](CC(=O)O)NC(=O)[C@H](CC(N)=O)NC(=O)[C@H](CC(=O)O)NC(=O)[C@@H]2CCCN2C1=O [compound 671] | > 5000 | 50 | 140 | –
3 | CC[C@H](C)[C@@H]1NC(=O)[C@@H]2CSSC[C@@H]3NC(=O)[C@H](C(C)C)NC(=O)[C@H](CC(C)C)NC(=O)[C@H](CC(N)=O)NC(=O)[C@@H]4CCCN4C(=O)[C@H](CCCNC(=N)N)NC(=O)[C@H](CSSC[C@H](NC(=O)[C@@H](N)CC(=O)O)C(=O)N[C@@H](CC(C)C)C(=O)NCC(=O)N(C)[C@@H](C(C)C)C(=O)N[C@@H](CC(C)C)C(=O)N[C@@H](CCCNC(=N)N)C(=O)N[C@@H](CCCCN)C(=O)N2)NC(=O)[C@H](CSSC[C@@H](C(=O)N[C@@H](CCCCN)C(=O)N[C@@H](Cc2ccc(O)cc2)C(=O)N[C@H](C(=O)N[C@@H](Cc2ccccc2)C(N)=O)C(C)C)NC(=O)[C@H](Cc2c[nH]c4ccccc24)NC(=O)[C@H](CCCCN)NC(=O)[C@H](Cc2c[nH]cn2)NC(=O)[C@H]([C@@H](C)O)NC(=O)[C@H](CCCNC(=N)N)NC(=O)[C@H](CO)NC3=O)NC(=O)[C@H](CCCCN)NC(=O)[C@H](CC(=O)O)NC(=O)[C@H](CC(N)=O)NC(=O)[C@H](CC(=O)O)NC(=O)[C@@H]2CCCN2C1=O [compound 672] | > 5000 | 750 | 470 | –
4 | CC[C@H](C)[C@@H]1NC(=O)[C@@H]2CSSC[C@@H]3NC(=O)[C@H](C(C)C)NC(=O)[C@H](CC(C)C)NC(=O)[C@H](CC(N)=O)NC(=O)[C@@H]4CCCN4C(=O)[C@H](CCCNC(=N)N)NC(=O)[C@H](CSSC[C@H](NC(=O)[C@@H](N)CC(=O)O)C(=O)N[C@@H](CC(C)C)C(=O)NCC(=O)N(C)[C@@H](CC(C)C)C(=O)N[C@@H](CC(C)C)C(=O)N[C@@H](CCCNC(=N)N)C(=O)N[C@@H](CCCCN)C(=O)N2)NC(=O)[C@H](CSSC[C@@H](C(=O)N[C@@H](CCCCN)C(=O)N[C@@H](Cc2ccc(O)cc2)C(=O)N[C@H](C(=O)N[C@@H](Cc2ccccc2)C(N)=O)C(C)C)NC(=O)[C@H](Cc2c[nH]c4ccccc24)NC(=O)[C@H](CCCCN)NC(=O)[C@H](Cc2c[nH]cn2)NC(=O)[C@H]([C@@H](C)O)NC(=O)[C@H](CCCNC(=N)N)NC(=O)[C@H](CO)NC3=O)NC(=O)[C@H](CCCCN)NC(=O)[C@H](CC(=O)O)NC(=O)[C@H](CC(N)=O)NC(=O)[C@H](CC(=O)O)NC(=O)[C@@H]2CCCN2C1=O [compound 673] | > 5000 | 690 | 170 | –
5 | CC[C@H](C)[C@@H]1NC(=O)[C@@H]2CSSC[C@@H]3NC(=O)[C@H](C(C)C)NC(=O)[C@H](CC(C)C)NC(=O)[C@H](CC(N)=O)NC(=O)[C@@H]4CCCN4C(=O)[C@H](CCCNC(=N)N)NC(=O)[C@H](CSSC[C@H](NC(=O)[C@@H](N)CC(=O)O)C(=O)N[C@@H](CC(C)C)C(=O)NCC(=O)N(C)[C@@H](Cc4ccccc4)C(=O)N[C@@H](CC(C)C)C(=O)N[C@@H](CCCNC(=N)N)C(=O)N[C@@H](CCCCN)C(=O)N2)NC(=O)[C@H](CSSC[C@@H](C(=O)N[C@@H](CCCCN)C(=O)N[C@@H](Cc2ccc(O)cc2)C(=O)N[C@H](C(=O)N[C@@H](Cc2ccccc2)C(N)=O)C(C)C)NC(=O)[C@H](Cc2c[nH]c4ccccc24)NC(=O)[C@H](CCCCN)NC(=O)[C@H](Cc2c[nH]cn2)NC(=O)[C@H]([C@@H](C)O)NC(=O)[C@H](CCCNC(=N)N)NC(=O)[C@H](CO)NC3=O)NC(=O)[C@H](CCCCN)NC(=O)[C@H](CC(=O)O)NC(=O)[C@H](CC(N)=O)NC(=O)[C@H](CC(=O)O)NC(=O)[C@@H]2CCCN2C1=O [compound 674] | > 5000 | 310 | 240 | –
6 | CC[C@H](C)[C@@H]1NC(=O)[C@@H]2CSSC[C@@H]3NC(=O)[C@H](C(C)C)NC(=O)[C@H](CC(C)C)NC(=O)[C@H](CC(N)=O)NC(=O)[C@@H]4CCCN4C(=O)[C@H](CCCNC(=N)N)NC(=O)[C@H](CSSC[C@H](NC(=O)[C@@H](N)CC(=O)O)C(=O)N[C@@H](CC(C)C)C(=O)NCC(=O)N[C@@H](Cc4ccccc4Cl)C(=O)N[C@@H](CC(C)C)C(=O)N[C@@H](CCCNC(=N)N)C(=O)N[C@@H](CCCCN)C(=O)N2)NC(=O)[C@H](CSSC[C@@H](C(=O)N[C@@H](CCCCN)C(=O)N[C@@H](Cc2ccc(O)cc2)C(=O)N[C@H](C(=O)N[C@@H](Cc2ccccc2)C(N)=O)C(C)C)NC(=O)[C@H](Cc2c[nH]c4ccccc24)NC(=O)[C@H](CCCCN)NC(=O)[C@H](Cc2c[nH]cn2)NC(=O)[C@H]([C@@H](C)O)NC(=O)[C@H](CCCNC(=N)N)NC(=O)[C@H](CO)NC3=O)NC(=O)[C@H](CCCCN)NC(=O)[C@H](CC(=O)O)NC(=O)[C@H](CC(N)=O)NC(=O)[C@H](CC(=O)O)NC(=O)[C@@H]2CCCN2C1=O [compound 675] | > 5000 | 72 | 66 | –
7 | CC[C@H](C)[C@@H]1NC(=O)[C@@H]2CSSC[C@@H]3NC(=O)[C@H](C(C)C)NC(=O)[C@H](CC(C)C)NC(=O)[C@H](CC(N)=O)NC(=O)[C@@H]4CCCN4C(=O)[C@H](CCCNC(=N)N)NC(=O)[C@H](CSSC[C@H](NC(=O)[C@@H](N)CC(=O)O)C(=O)N[C@@H](CC(C)C)C(=O)NCC(=O)N[C@@H](CCc4ccccc4)C(=O)N[C@@H](CC(C)C)C(=O)N[C@@H](CCCNC(=N)N)C(=O)N[C@@H](CCCCN)C(=O)N2)NC(=O)[C@H](CSSC[C@@H](C(=O)N[C@@H](CCCCN)C(=O)N[C@@H](Cc2ccc(O)cc2)C(=O)N[C@H](C(=O)N[C@@H](Cc2ccccc2)C(N)=O)C(C)C)NC(=O)[C@H](Cc2c[nH]c4ccccc24)NC(=O)[C@H](CCCCN)NC(=O)[C@H](Cc2c[nH]cn2)NC(=O)[C@H]([C@@H](C)O)NC(=O)[C@H](CCCNC(=N)N)NC(=O)[C@H](CO)NC3=O)NC(=O)[C@H](CCCCN)NC(=O)[C@H](CC(=O)O)NC(=O)[C@H](CC(N)=O)NC(=O)[C@H](CC(=O)O)NC(=O)[C@@H]2CCCN2C1=O [compound 676] | > 5000 | 61 | 16 | –
8 | CCCCCCCC[C@@H]1NC(=O)CNC(=O)[C@H](CC(C)C)NC(=O)[C@@H](NC(=O)[C@@H](N)CC(=O)O)CSSC[C@@H]2NC(=O)[C@@H]3CSSC[C@@H](C(=O)N[C@@H](CCCCN)C(=O)N[C@@H](Cc4ccc(O)cc4)C(=O)N[C@H](C(=O)N[C@@H](Cc4ccccc4)C(N)=O)C(C)C)NC(=O)[C@H](Cc4c[nH]c5ccccc45)NC(=O)[C@H](CCCCN)NC(=O)[C@H](Cc4c[nH]cn4)NC(=O)[C@H]([C@@H](C)O)NC(=O)[C@H](CCCNC(=N)N)NC(=O)[C@H](CO)NC(=O)[C@H](CSSC[C@H](NC(=O)[C@H](CCCCN)NC(=O)[C@H](CCCNC(=N)N)NC(=O)[C@H](CCSC)NC1=O)C(=O)N[C@@H]([C@@H](C)CC)C(=O)N1CCC[C@H]1C(=O)N[C@@H](CC(=O)O)C(=O)N[C@@H](CC(N)=O)C(=O)N[C@@H](CC(=O)O)C(=O)N[C@@H](CCCCN)C(=O)N3)NC(=O)[C@H](C(C)C)NC(=O)[C@H](CC(C)C)NC(=O)[C@H](CC(N)=O)NC(=O)[C@@H]1CCCN1C(=O)[C@H](CCCNC(=N)N)NC2=O [compound 677] | – | 170 | 170 | > 5000
9 | CC[C@H](C)[C@@H]1NC(=O)[C@@H]2CSSC[C@@H]3NC(=O)[C@H](C(C)C)NC(=O)[C@H](CC(C)C)NC(=O)[C@H](CC(N)=O)NC(=O)[C@@H]4CCCN4C(=O)[C@H](CCCNC(=N)N)NC(=O)[C@H](CSSC[C@H](NC(=O)[C@@H](N)CC(=O)O)C(=O)N[C@@H](CC(C)C)C(=O)NCC(=O)N[C@@H](C(C)(C)C)C(=O)N[C@@H](CCSC)C(=O)N[C@@H](CCCNC(=N)N)C(=O)N[C@@H](CCCCN)C(=O)N2)NC(=O)[C@H](CSSC[C@@H](C(=O)N[C@@H](CCCCN)C(=O)N[C@@H](Cc2ccc(O)cc2)C(=O)N[C@H](C(=O)N[C@@H](Cc2ccccc2)C(N)=O)C(C)C)NC(=O)[C@H](Cc2c[nH]c4ccccc24)NC(=O)[C@H](CCCCN)NC(=O)[C@H](Cc2cnc[nH]2)NC(=O)[C@H]([C@@H](C)O)NC(=O)[C@H](CCCNC(=N)N)NC(=O)[C@H](CO)NC3=O)NC(=O)[C@H](CCCCN)NC(=O)[C@H](CC(=O)O)NC(=O)[C@H](CC(N)=O)NC(=O)[C@H](CC(=O)O)NC(=O)[C@@H]2CCCN2C1=O [compound 678] | – | 1360 | 700 | > 5000
